# Experimental data: article PMC11322472, “Enhancing [^177Lu]Lu-DOTA-TATE therapeutic efficacy in vitro by combining it with metronomic chemotherapeutics” (EJNMMI Research, 2024)
# Read-outs that look alike come from different tables or passages of the source.
# How the values were obtained:
# U2OS cells [1] = test: [^177Lu]Lu-DOTA-TATE uptake; assay type: cell-based, human; settings: U2OS parental cells, 24-hour incubation, 25 nM DOTA-TATE, 0.74–1.03 MBq, mean ± SD, N = 3–4
# Experimental: (§5) 1.5 × 10^5 U2OS/U2OS + SSTR2A or 2 × 10^5 BON1/BON1 + SSTR2A cells were seeded into 6-well plates in medium and allowed to adhere overnight in the incubator. The following day, 0.70–0.93 MBq (U2OS/U2OS + SSTR2A) or 0.75–1.03 MBq (BON1/BON1 + SSTR2A) [^177Lu]Lu-DOTA-TATE was added to wells (25 nM total DOTA-TATE) and incubated for 24 h. Excess [^177Lu]Lu-DOTA-TATE was then removed from wells and pooled together with two PBS washes (“Unbound” fraction). Cell-associated activity was harvested from wells by lysing cells with 0.5 M NaOH solution and pooled with a subsequent PBS wash (“Bound” fraction). Data was presented as percentage added activity (%AA) and activity per cell (Bq/cell).
# BON1 cells [2] = test: [^177Lu]Lu-DOTA-TATE uptake; assay type: cell-based, human; settings: BON1 parental cells, 24-hour incubation, 25 nM DOTA-TATE, 0.74–1.03 MBq, mean ± SD, N = 3–4
# Experimental: as §5
# BON1 + SSTR2A cells [3] = test: [^177Lu]Lu-DOTA-TATE uptake; assay type: cell-based, human; settings: 24-hour incubation, 25 nM DOTA-TATE, 0.74–1.03 MBq, mean ± SD, N = 3–4
# Experimental: as §5
# 1.5 × 10^5 U2OS/U2OS + SSTR2A or 2 × 10^5 BON1/BON1 + SSTR2A cells were seeded into 6-well plates in DMEM-HG or DMEM/F-12 medium, respectively, and allowed to adhere overnight in the incubator. Cells where then treated with chemotherapeutics for 24 h at the following concentrations: 152 µg/mL hydroxyurea, 4 ng/mL gemcitabine, and 200 ng/mL triapine for U2OS/U2OS + SSTR2A cells; and 152 µg/mL hydroxyurea, 2 ng/mL gemcitabine, and 100 ng/mL triapine for BON1/BON1 + SSTR2A cells. Following a 4 h recovery period after chemotherapeutics, medium was replaced with 1 mL of medium containing [^177Lu]Lu-DOTA-TATE for 24 h at 0.7–0.93 MBq for U2OS/U2OS + SSTR2A cells or 0.75–1.03 MBq for BON1/BON1 + SSTR2A cells. […]
# U2OS + SSTR2A cells [4] = test: Subcellular localisation of [^177Lu]Lu-DOTA-TATE; settings: no chemotherapeutic (Untreated), 24 h, 25 nM, mean ± SD, N = 3
# Experimental: (§6) Subcellular localisation of [^177Lu]Lu-DOTA-TATE in cells followed the protocol for the uptake assays above, except that, following removal of excess [^177Lu]Lu-DOTA-TATE, cells were incubated with ice-cold 0.1 M glycine (pH 2.5) for 10 min prior to pooling with a further PBS wash (“Membrane” fraction). Cells were then detached with Accutase and diluted in medium prior to pelleting and transferring the supernatant to the “Cytoplasm” fraction. The cell pellet was resuspended in ice-cold cell lysis buffer (25 mM KCl, 5 mM MgCl2, 10 mM Tris-HCl, and 0.5% v/v IGEPAL CA-630) and incubated for 15 min. Intact nuclei were pelleted and separated from lysed cells by centrifugation (10,000 g, 3 min) and the supernatant removed and combined with the previous portion of the “Cytoplasm” fraction. Pelleted nuclei were resuspended in phosphate-buffered saline (PBS) and transferred to tubes to gamma counting (“Nuclear” fraction). The percentage distribution of [^177Lu]Lu-DOTA-TATE in cells was then calculated for the membrane, cytoplasm, and nucleus.
# BON1 + SSTR2A cells [5] = test: Subcellular localisation of [^177Lu]Lu-DOTA-TATE; settings: no chemotherapeutic (Untreated), 24 h, 25 nM, mean ± SD, N = 3
# Experimental: as §6
# U2OS + SSTR2A cells [6] = test: [^177Lu]Lu-DOTA-TATE uptake (with or without chemotherapeutic pre-treatment); settings: 25 nM DOTA-TATE, mean ± SD
# Experimental: as §5
# 1.5 × 10^5 U2OS/U2OS + SSTR2A or 2 × 10^5 BON1/BON1 + SSTR2A cells were seeded into 6-well plates in DMEM-HG or DMEM/F-12 medium, respectively, and allowed to adhere overnight in the incubator. Cells where then treated with chemotherapeutics for 24 h at the following concentrations: 152 µg/mL hydroxyurea, 4 ng/mL gemcitabine, and 200 ng/mL triapine for U2OS/U2OS + SSTR2A cells; and 152 µg/mL hydroxyurea, 2 ng/mL gemcitabine, and 100 ng/mL triapine for BON1/BON1 + SSTR2A cells. Following a 4 h recovery period after chemotherapeutics, medium was replaced with 1 mL of medium containing [^177Lu]Lu-DOTA-TATE for 24 h at 0.7–0.93 MBq for U2OS/U2OS + SSTR2A cells or 0.75–1.03 MBq for BON1/BON1 + SSTR2A cells. […] Uptake and viability studies were then carried out as above.
# BON1 cells [7] = assay type: cell-based, human; settings: parental BON1 cells; label = chemotherapeutic pre-treatment; MTT at day 7, N = 3
# Experimental: (§1) Excess MTT was then removed. Formazan crystals were dissolved with 50 μL/well in dimethylsulfoxide (DMSO) for 2 min at room temperature (RT) under gentle agitation. Well absorbance at 570 nm was then measured on a UV/V is absorbance microplate reader (SPECTROstar® Nano, BMG LABTECH). Metabolic viability, following signal-to-background correction, was calculated as the percentage signal in treated cells normalised to the signal in untreated cells.
# U2OS cells [8] = assay type: cell-based, human; settings: parental U2OS cells; label = chemotherapeutic pre-treatment; MTT at day 7, N = 3
# Experimental: as §1
# U2OS + SSTR2A cells [9] = test: Viability after chemotherapeutic agents (GI50, MTT); assay type: cell-based; settings: Homo sapiens, 24 h treatment, further 5 days growth, from fitted curves, N = 3
# Experimental: (§2) U2OS/U2OS + SSTR2A and BON1/BON1 + SSTR2A cells were seeded in 96-well plates at 2 × 10^3 and 4 × 10^3 cells/well, respectively, and allowed to adhere overnight in the incubator. Cells were then treated with a range of hydroxyurea, gemcitabine, and triapine concentrations for 24 h. Hydroxyurea in U2OS/U2OS + SSTR2A cells was used at 152 µg/mL for 24 h. Chemotherapeutics were then removed, and cells washed with PBS prior to returning to the incubator in fresh medium. Cells were then grown for a further 5 days post-chemotherapeutics prior to assessing metabolic viability, as described above. Chemotherapeutic concentrations needed to inhibit population growth by 50% (GI50) were then calculated.
# BON1 + SSTR2A cells [10] = test: as above; assay type: cell-based, human; settings: 24 h treatment, further 5 days growth, from fitted curves
# Experimental: as §2
# U2OS + SSTR2A cells [11] = test: X-ray radiotherapy viability post chemotherapeutics; assay type: cell-based, human; settings: 24 h 2 mM HU, 4 ng/mL GEM, 200 ng/mL TRI, X-ray 0, 2 and 4 Gy, N = 3 (Figure S7)
# Experimental: (§3) Cells where then treated with chemotherapeutics for 24 hours at 2 mM HU, 4 ng/mL GEM and 200 ng/mL TRI. Following chemotherapeutics, media was refreshed, and cells were X-ray irradiated at 0 (sham-irradiated), 2 and 4 Gy using the image-guided small animal radiotherapy system, SmART+, X-ray irradiator (Precision X-ray Irradiation). The calibrated dose-rate was 6.1796 Gy.min^-1; the X-ray beam used for treatment was set at a voltage of 225 kV, a current of 20 mA and passed through a 0.3 mm Cu filter. Viability analyses were then carried out as above.
# U2OS cells [12] = test: as above; assay type: cell-based, human; settings: 24 h 2 mM HU, 4 ng/mL GEM, 200 ng/mL TRI, X-ray 0, 2 and 4 Gy, N = 3 (Figure S7)
# Experimental: as §3
# U2OS + SSTR2A cells [13] = test: [^177Lu]LuCl3 and DOTA-TATE viability (MTT); assay type: cell-based, human; settings: MTT after 7 days
# Experimental: 2x10^3 U2OS or U2OS+SSTR2A cells, after treatment for 24 hours with [^177Lu]LuCl3 (0.97 MBq) or DOTA-TATE (25 nM, U2OS+SSTR2A only), were reseeded in technical sextuplet wells in 96-well plates containing a final media volume of 180 µL/well. Dedicated wells with no cells present served as background signal controls. Plates were placed in the incubator and cells allowed to adhere and grow for 7 days. After 7 days, DMEM-HG was aspirated and replaced with 90 µL of basal DMEM-HG containing 0.5 mg/mL MTT. Plates were returned to the incubator for 4 h prior to aspiration of excess MTT. Formazan crystals were then dissolved with 50 µL/well DMSO for 2 minutes at RT under gentle agitation. Well absorbance at 570 nm wavelength was then immediately measured on a UV/Vis absorbance microplate reader (SPECTROstar® Nano, BMG LABTECH). Metabolic viability, following signal background-correction, was calculated as the percentage of signal normalized to the signal of the respective fully-untreated or chemotherapeutic-alone cells.
# U2OS + SSTR2A cells [14] = test: [^177Lu]LuCl3 uptake; assay type: cell-based, human; settings: 0.97 MBq, 24-hour incubation, N = 3 (Figure S3)
# Experimental: (§4) The following day, 0.97 MBq [^177Lu]LuCl3 was added to wells and incubated for 24 hours. […] Data is presented as both percentage uptake of total added activity and normalised as Bq/cell uptake.
# U2OS cells [15] = test: [^177Lu]LuCl3 uptake; assay type: cell-based, human; settings: 0.97 MBq, 24-hour incubation, N = 3 (Figure S3)
# Experimental: as §4
# [16] = Homo sapiens, N = 3, read-out: GI50
compound,measurement,setting,value
"C[C@@H](O)[C@H](NC(=O)[C@@H]1CSSC[C@H](NC(=O)[C@@H](Cc2ccccc2)NC(=O)CN2CCN(CC(=O)O)CCN(CC(=O)O)CCN(CC(=O)O)CC2)C(=O)N[C@@H](Cc2ccc(O)cc2)C(=O)N[C@H](Cc2c[nH]c3ccccc23)C(=O)N[C@@H](CCCCN)C(=O)N[C@@H]([C@@H](C)O)C(=O)N1)C(=O)O [[^177Lu]Lu-DOTA-TATE, [^177Lu]Lu-[DOTA^0-Tyr^3]octreotate, metal not drawn]",Uptake (mBq/cell),U2OS cells [1],4.4 ± 1.0 mBq/cell
same,Uptake (%AA),U2OS cells [1]; percentage added activity,0.3 ± 0.0 %AA
same,Uptake (mBq/cell),BON1 cells [2],6.5 ± 6.3 mBq/cell
same,Uptake (%AA),BON1 cells [2]; percentage added activity,0.5 ± 0.3 %AA
same,Uptake (mBq/cell),BON1 + SSTR2A cells [3],111.2 ± 16.5 mBq/cell
same,Uptake (%AA),BON1 + SSTR2A cells [3]; percentage added activity,9.6 ± 0.6 %AA
same,Cytoplasm (%) of total uptake of [^177Lu]Lu-DOTA-TATE,U2OS + SSTR2A cells [4],93.5 ± 0.9%
same,Membrane (%) of total uptake of [^177Lu]Lu-DOTA-TATE,U2OS + SSTR2A cells [4],4.1 ± 0.6%
same,Nucleus (%) of total uptake of [^177Lu]Lu-DOTA-TATE,U2OS + SSTR2A cells [4],2.3 ± 0.4%
same,Cytoplasm (%) of total uptake of [^177Lu]Lu-DOTA-TATE,BON1 + SSTR2A cells [5],90.2 ± 1.7%
same,Membrane (%) of total uptake of [^177Lu]Lu-DOTA-TATE,BON1 + SSTR2A cells [5],7.3 ± 1.0%
same,Nucleus (%) of total uptake of [^177Lu]Lu-DOTA-TATE,BON1 + SSTR2A cells [5],2.5 ± 0.7%
same,Uptake (mBq/cell),"U2OS + SSTR2A cells [6]; U2OS + SSTR2A cells, 24-hour incubation, 0.74–1.03 MBq, N = 3–4",216.9 ± 47.4 mBq/cell
same,Uptake (%AA),"U2OS + SSTR2A cells [6]; U2OS + SSTR2A cells, 24-hour incubation, 0.74–1.03 MBq, percentage added activity, N = 3–4",17.8 ± 2.4 %AA
same,Internalized quantities of [^177Lu]Lu-DOTA-TATE,"U2OS + SSTR2A cells [6]; untreated (no chemotherapeutic) U2OS + SSTR2A cells, 24 h, 0.7–1.03 MBq",0.2 ± 0.05 Bq/cell
"Nc1ccn([C@@H]2O[C@H](CO)[C@@H](O)C2(F)F)c(=O)n1 [Gemcitabine, gemcitabine]",Effect on viability of combining chemotherapeutic with [^177Lu]Lu-DOTA-TATE,BON1 cells [7],did not affect viability
same,Effect on viability of combining chemotherapeutic with [^177Lu]Lu-DOTA-TATE,U2OS cells [8],did not affect viability
same,GI50,U2OS + SSTR2A cells [9],0.0047 mg/L
same,GI50,BON1 + SSTR2A cells [10]; [16],0.0022 mg/L
same,potentiation of X-ray radiation effects by chemotherapeutic pre-treatment (viability),U2OS + SSTR2A cells [11],potentiation of radiation effects was seen
same,potentiation of X-ray radiation effects by chemotherapeutic pre-treatment (viability),U2OS cells [12],potentiation of radiation effects was seen
DOTA-TATE,metabolic viability after non-radioactive DOTA-TATE,"U2OS + SSTR2A cells [13]; U2OS + SSTR2A cells, 25 nM for 24 h, N = 4 (Figure S5)",did not reduce metabolic viability
"NC(=O)NO [Hydroxyurea, hydroxyurea]",Effect on viability of combining chemotherapeutic with [^177Lu]Lu-DOTA-TATE,BON1 cells [7],did not affect viability
same,Effect on viability of combining chemotherapeutic with [^177Lu]Lu-DOTA-TATE,U2OS cells [8],did not affect viability
same,GI50,BON1 + SSTR2A cells [10]; N = 3,248.1 (152) µg/mL
same,potentiation of X-ray radiation effects by chemotherapeutic pre-treatment (viability),U2OS + SSTR2A cells [11],potentiation of radiation effects was seen
same,potentiation of X-ray radiation effects by chemotherapeutic pre-treatment (viability),U2OS cells [12],potentiation of radiation effects was seen
[177Lu+3].[Cl-].[Cl-].[Cl-] [[^177Lu]LuCl3],Uptake of unchelated [^177Lu]LuCl3,U2OS + SSTR2A cells [14],low
same,Uptake of unchelated [^177Lu]LuCl3,U2OS cells [15],low
same,metabolic viability after [^177Lu]LuCl3,"U2OS + SSTR2A cells [13]; SSTR2A-expressing cells, 0.97 MBq for 24 hours, N = 3 (Figure S4)",only minor reductions in metabolic viability
"NC(=S)N/N=C/c1ncccc1N [Triapine, triapine]",Effect on viability of combining chemotherapeutic with [^177Lu]Lu-DOTA-TATE,BON1 cells [7],did not affect viability
same,Effect on viability of combining chemotherapeutic with [^177Lu]Lu-DOTA-TATE,U2OS cells [8],did not affect viability
same,GI50,U2OS + SSTR2A cells [9],0.12 mg/L
same,GI50,BON1 + SSTR2A cells [10]; [16],0.327 mg/L
same,potentiation of X-ray radiation effects by chemotherapeutic pre-treatment (viability),U2OS + SSTR2A cells [11],potentiation of radiation effects was seen
same,potentiation of X-ray radiation effects by chemotherapeutic pre-treatment (viability),U2OS cells [12],potentiation of radiation effects was seen
